Ki data for five molecules are collected here from BindingDB's records for doi:10.1016/S0960-894X(01)80753-8 (1993).

One may read the pKi as the Ki on a negative log10 scale, so that one unit is a factor of ten. The low end stands for a high Ki, the high end for a low Ki.

pKi: −log10 of the molar value.

This experiment has as its target Platelet-activating factor receptor (Oryctolagus cuniculus). Put plainly: Inhibition of [3H]PAF binding to rabbit platelet membranes.
Molecule `O=C(c1ccccc1)c1cccc(NC(=O)[C@@H]2OC(=O)N3[C@@H](c4cccnc4)SC[C@@H]23)c1` [(1R,5R,7aR)-3-Oxo-5-pyridin-3-yl-dihydro-thiazolo[3,4-c]oxazole-1-carboxylic acid (3-benzoyl-phenyl)-amide] showed a pKi of 5.92. With `O=C(c1ccccc1)c1cccc(NC(=O)[C@@H]2OC(=O)N3[C@H](c4cccnc4)SC[C@@H]23)c1` [(1R,5S,7aR)-3-Oxo-5-pyridin-3-yl-dihydro-thiazolo[3,4-c]oxazole-1-carboxylic acid (3-benzoyl-phenyl)-amide], the pKi is 5.60.

Take `O=C(c1ccccc1)c1cccc(NC(=O)[C@H]2OC(=O)N3[C@@H](c4cccnc4)SC[C@@H]23)c1` [(1S,5R,7aR)-3-Oxo-5-pyridin-3-yl-dihydro-thiazolo[3,4-c]oxazole-1-carboxylic acid (3-benzoyl-phenyl)-amide]: the pKi was 7.62. For `O=C(c1ccccc1)c1cccc(NC(=O)[C@H]2OC(=O)N3[C@H](c4cccnc4)SC[C@@H]23)c1` [(1S,5S,7aR)-3-Oxo-5-pyridin-3-yl-dihydro-thiazolo[3,4-c]oxazole-1-carboxylic acid (3-benzoyl-phenyl)-amide], the negative-log Ki (pKi) is 6.82. The result for `O=C(c1ccccc1)c1cccc(NC(=O)[C@@H]2CSC(c3cccnc3)N2)c1` (stereo partly drawn) [(R)-2-Pyridin-3-yl-thiazolidine-4-carboxylic acid (3-benzoyl-phenyl)-amide] reads 8.30.
